# According to PubChem BioAssay (NCI):
#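 Grown in 96-well plates, cells were treated for 48 hours with each compound at five concentrations. Insufficient inhibition: endpoint recorded as highest concentration tested. Here, GI50 denotes the concentration required for 50% inhibition of growth. TGI denotes the concentration required for complete inhibition of growth.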
# Experiments:
# Test in all cases: NCI-60 cell line screen, 48 h
# NCI-H226 lung = test system: NCI-H226 lung
# OVCAR-4 ovarian = test system: OVCAR-4 ovarian
# SK-MEL-5 melanoma = test system: SK-MEL-5 melanoma
# SN12C renal = test system: SN12C renal
# SNB-19 CNS = test system: SNB-19 CNS
# SR leukemia = test system: SR leukemia
# SW-620 colon = test system: SW-620 colon
# TK-10 renal = test system: TK-10 renal
# ACHN renal = test system: ACHN renal
# RPMI-8226 leukemia = test system: RPMI-8226 leukemia
smiles,measurement,setting,value
N=C(c1ccccc1)N(O)C1CCCCC1,TGI,NCI-H226 lung,> 100 µM
same,TGI,OVCAR-4 ovarian,> 100 µM
same,TGI,SK-MEL-5 melanoma,> 100 µM
same,TGI,SN12C renal,> 100 µM
same,TGI,SNB-19 CNS,> 100 µM
same,TGI,SR leukemia,> 100 µM
same,TGI,SW-620 colon,> 100 µM
same,TGI,TK-10 renal,> 100 µM
CCN(CC)c1ccc2c(c1)Oc1nc(N)c(C#N)c(N)c1C2Sc1ccc(SC)cc1 (stereo unspecified),GI50,ACHN renal,1.68 µM
same,TGI,ACHN renal,3.04 µM
same,GI50,NCI-H226 lung,1.53 µM
same,TGI,NCI-H226 lung,2.89 µM
same,GI50,OVCAR-4 ovarian,1.75 µM
same,TGI,OVCAR-4 ovarian,3.4 µM
same,GI50,RPMI-8226 leukemia,2.5 µM
same,TGI,RPMI-8226 leukemia,6.56 µM
same,GI50,SK-MEL-5 melanoma,1.65 µM
same,TGI,SK-MEL-5 melanoma,3.01 µM
same,GI50,SNB-19 CNS,1.52 µM
same,TGI,SNB-19 CNS,2.9 µM
same,GI50,SR leukemia,0.436 µM
same,TGI,SR leukemia,3.87 µM
same,GI50,SW-620 colon,1.88 µM
same,TGI,SW-620 colon,3.68 µM
same,GI50,TK-10 renal,2.59 µM
same,TGI,TK-10 renal,4.1 µM
COc1cnc2c(c1)C(=O)c1c-2n(CCCn2ccnc2)c(=O)c2cc(Cl)ccc12,GI50,ACHN renal,0.0301 µM
same,TGI,ACHN renal,61.4 µM
same,GI50,NCI-H226 lung,0.0464 µM
same,TGI,NCI-H226 lung,0.892 µM
same,GI50,OVCAR-4 ovarian,0.362 µM
same,TGI,OVCAR-4 ovarian,> 100 µM
same,GI50,RPMI-8226 leukemia,0.0504 µM
same,TGI,RPMI-8226 leukemia,0.987 µM
same,GI50,SK-MEL-5 melanoma,0.0387 µM
same,TGI,SK-MEL-5 melanoma,0.164 µM
same,GI50,SNB-19 CNS,0.0321 µM
same,TGI,SNB-19 CNS,> 100 µM
same,GI50,SW-620 colon,0.0262 µM
same,TGI,SW-620 colon,> 100 µM
same,GI50,TK-10 renal,0.744 µM
same,TGI,TK-10 renal,> 100 µM
CN(C)CCn1c2ccccc2c2nc3cc4ccccc4cc3nc21,TGI,ACHN renal,11.1 µM
same,TGI,NCI-H226 lung,34.6 µM
same,TGI,OVCAR-4 ovarian,23.7 µM
same,TGI,RPMI-8226 leukemia,13.2 µM
same,TGI,SK-MEL-5 melanoma,26.5 µM
same,TGI,SN12C renal,17.8 µM
same,TGI,SNB-19 CNS,27.7 µM
same,TGI,SW-620 colon,17.4 µM
same,TGI,TK-10 renal,26.4 µM
CN1CCN(c2ccc3c4c(cccc24)C(=O)N(CCN2CCN(CCCN4CCN(CCN5C(=O)c6cccc7c(N8CCN(C)CC8)ccc(c67)C5=O)CC4)CC2)C3=O)CC1,GI50,ACHN renal,3.13 µM
same,TGI,ACHN renal,9.72 µM
same,GI50,NCI-H226 lung,6 µM
same,TGI,NCI-H226 lung,14.4 µM
same,GI50,OVCAR-4 ovarian,8.01 µM
same,TGI,OVCAR-4 ovarian,19.4 µM
same,GI50,RPMI-8226 leukemia,0.861 µM
same,TGI,RPMI-8226 leukemia,1.89 µM
same,GI50,SK-MEL-5 melanoma,8.59 µM
same,TGI,SK-MEL-5 melanoma,18.6 µM
same,GI50,SN12C renal,4.02 µM
same,TGI,SN12C renal,11.2 µM
same,GI50,SNB-19 CNS,7.03 µM
same,TGI,SNB-19 CNS,16.2 µM
same,GI50,SW-620 colon,1.59 µM
same,TGI,SW-620 colon,50 µM
same,GI50,TK-10 renal,9.38 µM
same,TGI,TK-10 renal,21.1 µM
O=c1/c(=C/c2ccc(Cl)cc2Cl)sc2nc3ccccc3n12,TGI,ACHN renal,> 100 µM
same,TGI,NCI-H226 lung,> 100 µM
same,TGI,OVCAR-4 ovarian,> 100 µM
same,TGI,SK-MEL-5 melanoma,> 100 µM
same,TGI,SN12C renal,> 100 µM
same,TGI,SNB-19 CNS,> 100 µM
same,TGI,SW-620 colon,> 100 µM
same,TGI,TK-10 renal,> 100 µM
CC(=O)N1CC2Nc3ccccc3C2CC1CO (stereo unspecified),TGI,ACHN renal,> 100 µM
same,TGI,NCI-H226 lung,> 100 µM
same,TGI,OVCAR-4 ovarian,> 100 µM
same,TGI,RPMI-8226 leukemia,> 100 µM
same,TGI,SK-MEL-5 melanoma,> 100 µM
same,TGI,SN12C renal,> 100 µM
same,TGI,SNB-19 CNS,> 100 µM
same,TGI,SW-620 colon,> 100 µM
same,TGI,TK-10 renal,> 100 µM
COC(=O)CCC(=O)c1c(C)[nH]c(/C=C2\N=C(c3ccc[nH]3)C=C2OC)c1C,GI50,ACHN renal,0.783 µM
same,TGI,ACHN renal,4.18 µM
same,GI50,NCI-H226 lung,1.08 µM
same,TGI,NCI-H226 lung,3.27 µM
same,GI50,OVCAR-4 ovarian,2.12 µM
same,TGI,OVCAR-4 ovarian,17 µM
same,GI50,RPMI-8226 leukemia,0.36 µM
same,TGI,RPMI-8226 leukemia,1.87 µM
same,GI50,SK-MEL-5 melanoma,0.567 µM
same,TGI,SK-MEL-5 melanoma,1.71 µM
same,GI50,SN12C renal,1.45 µM
same,TGI,SN12C renal,5.38 µM
same,GI50,SNB-19 CNS,3.2 µM
same,TGI,SNB-19 CNS,14.2 µM
same,GI50,SW-620 colon,0.318 µM
same,TGI,SW-620 colon,1.32 µM
same,GI50,TK-10 renal,1.18 µM
same,TGI,TK-10 renal,7.74 µM
O=C1Nc2ccccc2C1Cc1ccccc1 (stereo unspecified),TGI,ACHN renal,> 100 µM
same,TGI,NCI-H226 lung,> 100 µM
same,TGI,OVCAR-4 ovarian,> 100 µM
same,TGI,RPMI-8226 leukemia,> 100 µM
same,TGI,SK-MEL-5 melanoma,> 100 µM
same,TGI,SNB-19 CNS,> 100 µM
same,TGI,SR leukemia,> 100 µM
same,TGI,SW-620 colon,> 100 µM
same,TGI,TK-10 renal,> 100 µM
COc1cc2c(c(OC)c1OC)-c1[nH]ncc1CC2,TGI,ACHN renal,> 100 µM
same,TGI,NCI-H226 lung,> 100 µM
same,TGI,SK-MEL-5 melanoma,> 100 µM
same,TGI,SN12C renal,> 100 µM
same,TGI,SNB-19 CNS,> 100 µM
same,TGI,SR leukemia,> 100 µM
same,TGI,SW-620 colon,> 100 µM
same,TGI,TK-10 renal,> 100 µM
Cn1c(CCC#N)nc2ccc(Br)cc2c1=O,TGI,ACHN renal,> 100 µM
same,TGI,NCI-H226 lung,> 100 µM
same,TGI,OVCAR-4 ovarian,> 100 µM
same,TGI,RPMI-8226 leukemia,> 100 µM
same,TGI,SK-MEL-5 melanoma,> 100 µM
same,TGI,SN12C renal,> 100 µM
same,TGI,SW-620 colon,> 100 µM
same,TGI,TK-10 renal,> 100 µM
CC(C)C(=O)N[C@@H](C)C(=O)N(Cc1ccc2ccccc2c1)N=O,TGI,ACHN renal,> 100 µM
same,TGI,OVCAR-4 ovarian,> 100 µM
same,TGI,RPMI-8226 leukemia,> 100 µM
same,TGI,SK-MEL-5 melanoma,> 100 µM
same,TGI,SN12C renal,> 100 µM
same,TGI,SNB-19 CNS,> 100 µM
same,TGI,SW-620 colon,> 100 µM
same,TGI,TK-10 renal,> 100 µM
Nc1ccc(Nc2nc(F)nc(-c3c4ccccc4c4n3CCS4)n2)cc1,TGI,ACHN renal,25.3 µM
same,TGI,NCI-H226 lung,25.9 µM
same,TGI,OVCAR-4 ovarian,29.4 µM
same,TGI,SK-MEL-5 melanoma,25.8 µM
same,TGI,SN12C renal,33.4 µM
same,TGI,SNB-19 CNS,30.3 µM
same,TGI,SW-620 colon,27.9 µM
same,TGI,TK-10 renal,34.2 µM
CCN(CC)CCOc1ccc(/C=C2\CC3C4CCC5=CC(=O)CC[C@]5(C)C4CC[C@]3(C)C2=O)cc1OC (stereo partly specified),GI50,ACHN renal,3.05 µM
same,GI50,NCI-H226 lung,2.03 µM
same,TGI,NCI-H226 lung,6.51 µM
same,GI50,OVCAR-4 ovarian,10.6 µM
same,TGI,OVCAR-4 ovarian,> 100 µM
same,GI50,RPMI-8226 leukemia,1.79 µM
same,TGI,RPMI-8226 leukemia,5.03 µM
same,GI50,SK-MEL-5 melanoma,1.63 µM
same,TGI,SK-MEL-5 melanoma,3.28 µM
same,GI50,SN12C renal,2.6 µM
same,TGI,SN12C renal,7.06 µM
same,GI50,SNB-19 CNS,4.03 µM
same,TGI,SNB-19 CNS,22.7 µM
same,GI50,SW-620 colon,2.98 µM
same,TGI,SW-620 colon,13.4 µM
same,GI50,TK-10 renal,2.45 µM
same,TGI,TK-10 renal,5.59 µM
C(=C\c1csnn1)/c1cccnc1,TGI,ACHN renal,> 100 µM
same,TGI,NCI-H226 lung,> 100 µM
same,TGI,OVCAR-4 ovarian,> 100 µM
same,TGI,RPMI-8226 leukemia,> 100 µM
same,TGI,SN12C renal,> 100 µM
same,TGI,SNB-19 CNS,> 100 µM
same,TGI,SW-620 colon,> 100 µM
same,TGI,TK-10 renal,> 100 µM
N#Cc1ccccc1C#C/C=C\C#Cc1ccc(OCCCNC(=O)c2cc3ccccc3[nH]2)cc1,GI50,ACHN renal,16.9 µM
same,TGI,ACHN renal,34.9 µM
same,GI50,NCI-H226 lung,13.8 µM
same,TGI,NCI-H226 lung,31.9 µM
same,GI50,OVCAR-4 ovarian,59 µM
same,TGI,OVCAR-4 ovarian,> 100 µM
same,GI50,SK-MEL-5 melanoma,4.24 µM
same,TGI,SK-MEL-5 melanoma,20.2 µM
same,GI50,SNB-19 CNS,16.5 µM
same,TGI,SNB-19 CNS,39.7 µM
same,GI50,SW-620 colon,30.2 µM
same,TGI,SW-620 colon,> 100 µM
same,GI50,TK-10 renal,15.7 µM
same,TGI,TK-10 renal,34 µM
CC1=CC(C)(C)N=C2SC(c3ccc(Cl)cc3)=NN12,TGI,ACHN renal,> 100 µM
same,TGI,NCI-H226 lung,55.4 µM
same,TGI,OVCAR-4 ovarian,> 100 µM
same,TGI,RPMI-8226 leukemia,49.8 µM
same,TGI,SK-MEL-5 melanoma,33.9 µM
same,TGI,SNB-19 CNS,> 100 µM
same,TGI,SW-620 colon,> 100 µM
same,TGI,TK-10 renal,> 100 µM
O=c1cc(Cl)nc[nH]1,TGI,ACHN renal,> 100 µM
same,TGI,NCI-H226 lung,> 100 µM
same,TGI,OVCAR-4 ovarian,> 100 µM
same,TGI,RPMI-8226 leukemia,> 100 µM
same,TGI,SK-MEL-5 melanoma,> 100 µM
same,TGI,SN12C renal,> 100 µM
same,TGI,SNB-19 CNS,> 100 µM
same,TGI,SW-620 colon,> 100 µM
same,TGI,TK-10 renal,> 100 µM
O=C(Nc1c(-c2nc3ccccc3[nH]2)sc(=S)n1-c1ccccc1)c1ccccc1,TGI,ACHN renal,> 100 µM
same,TGI,NCI-H226 lung,58.1 µM
same,TGI,RPMI-8226 leukemia,> 100 µM
same,TGI,SK-MEL-5 melanoma,> 100 µM
same,TGI,SN12C renal,> 100 µM
same,TGI,SNB-19 CNS,> 100 µM
same,TGI,SW-620 colon,> 100 µM
same,TGI,TK-10 renal,> 100 µM
CC(=O)OC1COC(S[As](C)C)C(OC(C)=O)C1OC(C)=O (stereo unspecified),GI50,ACHN renal,0.195 µM
same,TGI,ACHN renal,1.52 µM
same,GI50,NCI-H226 lung,1.47 µM
same,TGI,NCI-H226 lung,7.9 µM
same,GI50,OVCAR-4 ovarian,2.53 µM
same,TGI,OVCAR-4 ovarian,24 µM
same,TGI,RPMI-8226 leukemia,0.0245 µM
same,GI50,SK-MEL-5 melanoma,0.0658 µM
same,TGI,SK-MEL-5 melanoma,0.253 µM
same,GI50,SN12C renal,0.48 µM
same,TGI,SN12C renal,2.74 µM
same,GI50,SNB-19 CNS,14.7 µM
same,TGI,SNB-19 CNS,49.5 µM
same,GI50,SW-620 colon,0.341 µM
same,TGI,SW-620 colon,1.69 µM
same,GI50,TK-10 renal,0.08 µM
same,TGI,TK-10 renal,0.832 µM
